# Results from US10988477B2 (Merck Patent GmbH, priority 2018, dated 2021).
# Key:
# [1] = target: intracellular GCN2 (phosphorylation of the GCN2 substrate eIF2α) (Homo sapiens, UniProt Q9P2K8); test: GCN2 cellular inhibition assay (AlphaScreen SureFire P-eIF2α Ser51, borrelidin-treated U2OS cells); assay type: cell-based; conditions: compounds of Formula IV; biomarker assay, phosphorylated eIF2α Ser51 in borrelidin-treated U2OS cells
# Outline: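 U2OS cells adhered overnight, then treated with compounds (4-fold serial dilutions from 40 μM final) plus borrelidin 10 μM final for 1 h at 37 °C. Lysate eIF2α Ser51 phosphorylation measured by AlphaScreen SureFire. Percent inhibition calculated relative to borrelidin-only wells.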
# GCN2 kinase = GCN2 kinase (Homo sapiens, UniProt Q9P2K8); test: GCN2 enzyme inhibition assay (Transcreener ADP2 fluorescence polarization); assay type: biochemical; conditions: Enzyme activity for compounds of Formula IV; Ki(app), 280 μM ATP, 25° C.
# Chain of GCN2 kinase (Q9P2K8 whole entry): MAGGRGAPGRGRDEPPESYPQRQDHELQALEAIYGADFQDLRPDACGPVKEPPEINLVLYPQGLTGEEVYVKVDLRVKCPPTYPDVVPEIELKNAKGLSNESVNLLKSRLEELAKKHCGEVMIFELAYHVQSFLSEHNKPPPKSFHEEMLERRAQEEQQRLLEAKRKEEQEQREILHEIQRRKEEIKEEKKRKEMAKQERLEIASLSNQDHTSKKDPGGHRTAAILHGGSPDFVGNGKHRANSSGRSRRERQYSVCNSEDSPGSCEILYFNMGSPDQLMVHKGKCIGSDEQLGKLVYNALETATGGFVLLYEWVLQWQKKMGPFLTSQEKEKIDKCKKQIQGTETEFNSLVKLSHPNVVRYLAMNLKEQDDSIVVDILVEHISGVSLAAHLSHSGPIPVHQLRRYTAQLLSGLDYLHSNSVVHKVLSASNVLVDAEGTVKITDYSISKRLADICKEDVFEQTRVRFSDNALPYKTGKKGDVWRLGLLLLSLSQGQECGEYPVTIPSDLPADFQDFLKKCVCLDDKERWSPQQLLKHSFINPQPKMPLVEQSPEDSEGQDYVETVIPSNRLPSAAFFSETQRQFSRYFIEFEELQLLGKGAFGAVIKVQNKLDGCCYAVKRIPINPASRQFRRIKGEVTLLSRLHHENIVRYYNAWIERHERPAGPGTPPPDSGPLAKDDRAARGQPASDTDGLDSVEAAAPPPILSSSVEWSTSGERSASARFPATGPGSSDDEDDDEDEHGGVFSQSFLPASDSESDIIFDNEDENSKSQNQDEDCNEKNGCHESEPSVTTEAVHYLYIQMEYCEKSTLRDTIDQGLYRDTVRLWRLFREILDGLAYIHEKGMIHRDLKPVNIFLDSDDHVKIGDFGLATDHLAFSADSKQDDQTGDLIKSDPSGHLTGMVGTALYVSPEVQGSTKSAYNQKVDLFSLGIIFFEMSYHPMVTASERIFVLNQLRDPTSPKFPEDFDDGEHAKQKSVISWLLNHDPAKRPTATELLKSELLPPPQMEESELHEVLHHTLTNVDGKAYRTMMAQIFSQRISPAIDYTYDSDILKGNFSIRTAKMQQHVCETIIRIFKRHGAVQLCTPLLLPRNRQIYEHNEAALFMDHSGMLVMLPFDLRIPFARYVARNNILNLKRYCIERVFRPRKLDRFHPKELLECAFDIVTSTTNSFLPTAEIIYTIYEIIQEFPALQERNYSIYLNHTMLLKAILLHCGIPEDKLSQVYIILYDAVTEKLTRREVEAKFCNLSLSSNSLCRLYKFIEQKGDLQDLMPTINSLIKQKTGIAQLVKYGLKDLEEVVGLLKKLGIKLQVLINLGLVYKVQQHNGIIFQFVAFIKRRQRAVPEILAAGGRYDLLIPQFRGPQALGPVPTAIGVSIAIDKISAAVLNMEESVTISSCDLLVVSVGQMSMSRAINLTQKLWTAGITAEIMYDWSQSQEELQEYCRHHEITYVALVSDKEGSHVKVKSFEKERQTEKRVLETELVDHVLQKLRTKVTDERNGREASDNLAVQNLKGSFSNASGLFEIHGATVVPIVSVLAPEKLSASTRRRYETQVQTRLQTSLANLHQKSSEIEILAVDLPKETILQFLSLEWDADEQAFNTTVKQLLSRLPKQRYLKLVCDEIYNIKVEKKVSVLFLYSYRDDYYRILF
# Outline: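 Kinase activity is followed as ADP formation, measured by fluorescence polarization, using 4 nM enzyme with 280 μM ATP and 200 μM (RS)7 peptide at pH 7.5 and 25 °C for 1 h. Values come from a non-linear tight-binding fit.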
# Chain of intracellular GCN2 (phosphorylation of the GCN2 substrate eIF2α) (Q9P2K8 whole entry): as above
IC50 [1] [nM],Ki (GCN2 kinase) [nM],Structure (SMILES)
> 5000,100 to 1000,"C[C@H]1CN(c2ccnc(-c3cnc4cnc(C(F)F)cn34)n2)C[C@@H](CNS(C)(=O)=O)C1(F)F [IV-21, N-(((3S,5S)-1-(2-(6-(Difluoromethyl)imidazo[1,2-a]pyrazin-3-yl)pyrimidin-4-yl)-4,4-difluoro-5-methylpiperidin-3-yl)methyl)methanesulfonamide]"
> 5000,100 to 1000,"CC(=O)N1CCN(c2ccnc(-c3cnc4cnc(C(F)F)cn34)n2)CC1 [IV-22, 1-(4-(2-(6-(Difluoromethyl)imidazo[1,2-a]pyrazin-3-yl)pyrimidin-4-yl)piperazin-1-yl)ethan-1-one]"
> 5000,100 to 1000,"CS(=O)(=O)NC[C@@H]1CN(c2ccnc(-c3cnc4cnc(C(F)F)cn34)n2)CCO1 [IV-23, (S)—N-((4-(2-(6-(Difluoromethyl)imidazo[1,2-a]pyrazin-3-yl)pyrimidin-4-yl)morpholin-2-yl)methyl)methanesulfonamide]"
> 5000,100 to 1000,"CC(=O)N1CCN(c2ccnc(-c3cnc4cnc(C(F)(F)F)cn34)n2)CC1 [IV-24, 1-(4-(2-(6-(Trifluoromethyl)imidazo[1,2-a]pyrazin-3-yl)pyrimidin-4-yl)piperazin-1-yl)ethan-1-one]"
> 5000,100 to 1000,"COc1cn2c(-c3nccc(N4CCN(C(C)=O)CC4)n3)cnc2cn1 [IV-25, 1-(4-(2-(6-Methoxyimidazo[1,2-a]pyrazin-3-yl)pyrimidin-4-yl)piperazin-1-yl)ethan-1-one]"
> 5000,100 to 1000,"CC(=O)N1CCN(c2ccnc(-c3cnc4cnc(CO)cn34)n2)CC1 [IV-26, 1-(4-(2-(6-(Hydroxymethyl)imidazo[1,2-a]pyrazin-3-yl)pyrimidin-4-yl)piperazin-1-yl)ethan-1-one]"
500 to 5000,10 to 100,"CS(=O)(=O)NCC1CCN(c2ccnc(-c3cnc4cnc(Br)cn34)n2)C1 (stereo not drawn) [IV-27, N-((1-(2-(6-Bromoimidazo[1,2-a]pyrazin-3-yl)pyrimidin-4-yl)pyrrolidin-3-yl)methyl)methanesulfonamide]"
500 to 5000,10 to 100,"FC(F)c1cn2c(-c3nccc(N4CCOC(c5cn[nH]c5)C4)n3)cnc2cn1 (stereo not drawn) [IV-28, 4-(2-(6-(Difluoromethyl)imidazo[1,2-a]pyrazin-3-yl)pyrimidin-4-yl)-2-(1H-pyrazol-4-yl)morpholine]"
> 5000,100 to 1000,"CS(=O)(=O)NC[C@H]1CCCN(c2ccnc(-c3cnc4cnc(C(F)F)cn34)n2)C1 [IV-29, (S)—N-((1-(2-(6-(Difluoromethyl)imidazo[1,2-a]pyrazin-3-yl)pyrimidin-4-yl)piperidin-3-yl)methyl)methanesulfonamide]"
> 5000,100 to 1000,"CC(=O)N1CCN(c2ccnc(-c3cnc4cnc(C(=O)O)cn34)n2)CC1 [IV-30, 3-(4-(4-Acetylpiperazin-1-yl)pyrimidin-2-yl)imidazo[1,2-a]pyrazine-6-carboxylic acid]"
500 to 5000,100 to 1000,"CC(=O)N1CCN(c2ccnc(-c3cnc4cnc(Br)cn34)n2)CC1 [IV-32, 1-(4-(2-(6-Bromoimidazo[1,2-a]pyrazin-3-yl)pyrimidin-4-yl)piperazin-1-yl)ethan-1-one]"
> 5000,100 to 1000,"CC(=O)N1CCN(c2ccnc(-c3cnc4cnc(C5CC5)cn34)n2)CC1 [IV-33, 1-(4-(2-(6-Cyclopropylimidazo[1,2-a]pyrazin-3-yl)pyrimidin-4-yl)piperazin-1-yl)ethan-1-one]"
> 5000,100 to 1000,"CS(=N)(=O)CC1CCCN(c2ccnc(-c3cnc4cnc(C(F)(F)F)cn34)n2)C1 (stereo not drawn) [IV-34, Imino(methyl)((1-(2-(6-(trifluoromethyl)imidazo[1,2-a]pyrazin-3-yl)pyrimidin-4-yl)piperidin-3-yl)methyl)-λ^6-sulfanone]"
> 5000,100 to 1000,"CC(=O)N1CCN(c2ccnc(-c3cnc4cnc(Cl)cn34)n2)CC1 [IV-35, 1-(4-(2-(6-Chloroimidazo[1,2-a]pyrazin-3-yl)pyrimidin-4-yl)piperazin-1-yl)ethan-1-one]"
> 5000,100 to 1000,"CC(=O)N1CCN(c2ccnc(-c3cnc4cnc(C(N)=O)cn34)n2)CC1 [IV-36, 3-(4-(4-Acetylpiperazin-1-yl)pyrimidin-2-yl)imidazo[1,2-a]pyrazine-6-carboxamide]"
> 5000,100 to 1000,"C=Cc1cn2c(-c3nccc(N4CCN(C(C)=O)CC4)n3)cnc2cn1 [IV-37, 1-(4-(2-(6-Vinylimidazo[1,2-a]pyrazin-3-yl)pyrimidin-4-yl)piperazin-1-yl)ethan-1-one]"
> 5000,10 to 100,"NC(=O)c1cn2c(-c3nccc(N4CCOC(c5cn[nH]c5)C4)n3)cnc2cn1 (stereo not drawn) [IV-38, 3-(4-(2-(1H-Pyrazol-4-yl)morpholino)pyrimidin-2-yl)imidazo[1,2-a]pyrazine-6-carboxamide]"

IC50 [1] [nM],Ki (GCN2 kinase) [nM],Structure (SMILES)
> 5000,100 to 1000,"c1cn2c(-c3nccc(N4CCOC(c5cn[nH]c5)C4)n3)cnc2cn1 (stereo not drawn) [IV-39, 4-(2-(Imidazo[1,2-a]pyrazin-3-yl)pyrimidin-4-yl)-2-(1H-pyrazol-4-yl)morpholine]"
< 500,10 to 100,"FC(F)(F)c1cn2c(-c3ccnc(N4CCOC(c5cn[nH]c5)C4)n3)cnc2cn1 (stereo not drawn) [IV-40, 2-(1H-Pyrazol-4-yl)-4-(4-(6-(trifluoromethyl)imidazo[1,2-a]pyrazin-3-yl)pyrimidin-2-yl)morpholine]"
> 5000,100 to 1000,"NC(=O)NCC1CCCN(c2ccnc(-c3cnc4cnc(C(F)F)cn34)n2)C1 (stereo not drawn) [IV-41, 1-((1-(2-(6-(Difluoromethyl)imidazo[1,2-a]pyrazin-3-yl)pyrimidin-4-yl)piperidin-3-yl)methyl)urea]"
500 to 5000,10 to 100,"NC(=O)C1CCCN(c2ccnc(-c3cnc4cnc(C(F)F)cn34)n2)C1 (stereo not drawn) [IV-42, 1-(2-(6-(Difluoromethyl)imidazo[1,2-a]pyrazin-3-yl)pyrimidin-4-yl)piperidine-3-carboxamide]"
> 5000,100 to 1000,"CS(=O)(=O)NCCC1CCCN(c2ccnc(-c3cnc4cnc(C(F)F)cn34)n2)C1 (stereo not drawn) [IV-43, N-(2-(1-(2-(6-(Difluoromethyl)imidazo[1,2-a]pyrazin-3-yl)pyrimidin-4-yl)piperidin-3-yl)ethyl)methanesulfonamide]"
> 5000,100 to 1000,"CNC(=O)C1CCCN(c2ccnc(-c3cnc4cnc(C(F)F)cn34)n2)C1 (stereo not drawn) [IV-44, 1-(2-(6-(Difluoromethyl)imidazo[1,2-a]pyrazin-3-yl)pyrimidin-4-yl)-N-methylpiperidine-3-carboxamide]"
> 5000,100 to 1000,"NC(=O)CCC1CCCN(c2ccnc(-c3cnc4cnc(C(F)F)cn34)n2)C1 (stereo not drawn) [IV-45, 3-(1-(2-(6-(Difluoromethyl)imidazo[1,2-a]pyrazin-3-yl)pyrimidin-4-yl)piperidin-3-yl)propanamide]"
> 5000,100 to 1000,"CC1CN(c2nccc(-c3cnc4cnc(C(F)F)cn34)n2)CC(CNS(C)(=O)=O)C1(F)F (stereo not drawn) [IV-46, N-((1-(4-(6-(Difluoromethyl)imidazo[1,2-a]pyrazin-3-yl)pyrimidin-2-yl)-4,4-difluoro-5-methylpiperidin-3-yl)methyl)methanesulfonamide]"
> 5000,100 to 1000,"NC(=O)C1CN(c2ccnc(-c3cnc4cnc(C(F)F)cn34)n2)CCO1 (stereo not drawn) [IV-48, 4-(2-(6-(Difluoromethyl)imidazo[1,2-a]pyrazin-3-yl)pyrimidin-4-yl)morpholine-2-carboxamide]"
> 5000,100 to 1000,"O=C1CCN(c2ccnc(-c3cnc4cnc(C(F)F)cn34)n2)CCN1 [IV-49, 1-(2-(6-(Difluoromethyl)imidazo[1,2-a]pyrazin-3-yl)pyrimidin-4-yl)-1,4-diazepan-5-one]"
500 to 5000,10 to 100,"NC(=O)[C@H]1CCCN(c2ccnc(-c3cnc4cnc(C(F)F)cn34)n2)C1 [IV-50, (S)-1-(2-(6-(Difluoromethyl)imidazo[1,2-a]pyrazin-3-yl)pyrimidin-4-yl)piperidine-3-carboxamide]"
> 5000,100 to 1000,"FC(F)c1cn2c(-c3nccc(N4CCCC(c5nn[nH]n5)C4)n3)cnc2cn1 (stereo not drawn) [IV-51, 3-(4-(3-(2H-Tetrazol-5-yl)piperidin-1-yl)pyrimidin-2-yl)-6-(difluoromethyl)imidazo[1,2-a]pyrazine]"
> 5000,100 to 1000,"FC(F)c1cn2c(-c3nccc(N4CCCC(c5cccnc5)C4)n3)cnc2cn1 (stereo not drawn) [IV-52, 6-(Difluoromethyl)-3-(4-(3-(pyridin-3-yl)piperidin-1-yl)pyrimidin-2-yl)imidazo[1,2-a]pyrazine]"
500 to 5000,10 to 100,"FC(F)c1cn2c(-c3nccc(N4CCCC(c5c[nH]cn5)C4)n3)cnc2cn1 (stereo not drawn) [IV-53, 3-(4-(3-(1H-Imidazol-4-yl)piperidin-1-yl)pyrimidin-2-yl)-6-(difluoromethyl)imidazo[1,2-a]pyrazine]"
500 to 5000,10 to 100,"CC1C(C(N)=O)CCCN1c1ccnc(-c2cnc3cnc(C(F)F)cn23)n1 (stereo not drawn) [IV-54, 1-(2-(6-(Difluoromethyl)imidazo[1,2-a]pyrazin-3-yl)pyrimidin-4-yl)-2-methylpiperidine-3-carboxamide]"
500 to 5000,10 to 100,"NC(=O)C1CCCN(c2cccc(-c3cnc4cnc(C(F)F)cn34)n2)C1 (stereo not drawn) [IV-55, 1-(6-(6-(Difluoromethyl)imidazo[1,2-a]pyrazin-3-yl)pyridin-2-yl)piperidine-3-carboxamide]"
